{"source": "patent US20230108093A1", "about": "“METHODS FOR PREDICTING AND TREATING LAMENESS” (Novus International, Inc., priority 2021, published 2023)", "test_system": "barrows", "assay": "Fast growth study (Example 2): average daily growth, gait score, lameness incidence", "assay_type": "in vivo, pig", "settings": "pigs fed RAC 10 ppm last 25 days, regardless of diet", "protocol": "A study was conducted in 144 healthy barrows, in which serum biomarkers were measured over 69 days at day 0, day 28, and day 69. Fast growth was induced in some pigs as explained below.\nThe study was a 2×2 factorial study. The first factor was diet. Pigs were fed either inorganic trace minerals (ITM) or Mintrex° (MTX), an organic mineral. The ITM included a ratio of 120-20-40 ppm Zn—Cu—Mn. The MTX included a ratio of 80-10-20 ppm Zn—Cu—Mn.\nThe second factor was feeding ractopamine (RAC; a beta-adrenergic agonist) to induce fast growth. Pigs were fed ractopamine at either 0 ppm or 10 ppm during the last 25 days of the trial.", "data": [{"compound": "CC(CCc1ccc(O)cc1)NCC(O)c1ccc(O)cc1", "note": "(racemic) [RAC, ractopamine]", "values": [{"measurement": "ADG (average daily growth)", "result": "increased"}]}]}
